{"source": "patent US20190224164A1", "about": "“COMPOSITIONS AND METHODS FOR TREATMENT OF COPD” (Bodor Laboratories, Inc., priority 2016, published 2019)", "system": "acetylcholine-induced bronchoconstriction", "assay": "Acetylcholine induced bronchoconstriction in anesthetized guinea pigs", "format": "in vivo, guinea pig", "procedure": "Male Hartley guinea pigs (320±120 g) (Charles River) are housed under standard conditions. Guinea pigs are anesthetized with urethane (2 g/kg, intraperitoneally), the trachea are cannulated and the animal is respired using a small animal respiratory pump (Harvard Apparatus LTD, Kent UK). Respiratory back pressure is measured and recorded using a rodent lung function recording system (MUMED, London UK). For drug administration the right jugular vein is cannulated. Following the surgical procedure, guinea pigs are allowed to stabilize for 20 minutes. Ten minutes before acetylcholine administration, the animals are disconnected from the ventilator and either the vehicle (10 mg lactose) or different amounts of the drug (suspended in the same amount of vehicle) are administered intratracheally. The trachea is reconnected to the ventilator and changes in pulmonary mechanics are followed. Acetylcholine (10 μg/kg) is administered intravenously in every 10 minutes six times. Male Hartley guinea pigs (320±120 g) (Charles River) are housed under standard conditions. Guinea pigs are anesthetized with urethane (2 g/kg, intraperitoneally), the trachea are cannulated and the animal is respired using a small animal respiratory pump (Harvard Apparatus LTD, Kent UK). Respiratory back pressure is measured and recorded using a rodent lung function recording system (MUMED, London UK). […]"}
{"smiles": "C[N+]1(C)CCC(OC(=O)C(O)(c2ccccc2)C2CCCC2)C1", "note": "(centres unmarked) [glycopyrrolate]", "values": [{"measurement": "protective effect on the acetylcholine-induced bronchoconstriction", "setting": "drug intratracheally ten minutes before acetylcholine (10 μg/kg i.v.)", "value": "protective effect"}, {"measurement": "protective effect on the acetylcholine-induced bronchoconstriction", "setting": "ester and zwitterion or their combination products intratracheally, acetylcholine 10 μg/kg i.v.", "value": "protective effect"}]}
